What was measured:
Assay type in all cases: biochemical
Bovine Chymotrypsin = target: T1, Bovine Chymotrypsin (Bos taurus, UniProt P00766); experiment: Measurement of chymotrypsin activity; settings: at 500 nM; read-out: inhibited % of the chymotrypsin activity
T1 construct: purchased Sigma C4129
Experimental: Measurement of Chymotrypsin Activity
Bovine Chymotrypsin (Sigma Type 11 Cat. No. C4129) was dissolved at a concentration of 1 mg/ml in 100 mM Tris pH 7.8. Prior to use, the enzyme was diluted 20 fold immediately before use, with the same buffer.
Selected compounds were routinely stored as 5 mM stock solutions dissolved in DMSO (Dimethylsulphoxide) at −20° C. For the assay, aliquots were defrosted and a series of dilutions (×20, ×100, ×200, ×1,000, ×2,000, ×10,000, ×20,000 and ×100,000) made in 100 mM Tris pH 7.8. The substrate H-Ala-Ala-Phe-p-nitroanilide (H-alanyl-alanyl-phenylalanine-p-nitroanilide) (Bachem Cat. No. L-1095) was dissolved in DMSO to give a 10 mM stock and stored at 4° C. until use. Immediately prior to use, the substrate was diluted to 0.3 mM final concentration (30 μl/ml) just before use.
(§1) The assay was set up in triplicate in a 96 well ELISA plate. 10 μl 50 μg/ml chymotrypsin, 50 μl diluted inhibitor and 190 μl substrate were added sequentially. The plates were then incubated at 37° C. in a BioRad Benchmark Microplate Reader. The rate of release of p-nitroaniline was measured at […] over 10 minutes relative to that of the enzyme without inhibitor.

human pancreatic lipase = target: T2, human pancreatic lipase (Homo sapiens, UniProt P16233); experiment: Lipase activity, quinine diimine dye calorimetric assay (Sigma Lipase-PS); settings: at 500 nM; read-out: inhibited % of the pancreatic lipase activity
T2 sequence (P16233 17-465): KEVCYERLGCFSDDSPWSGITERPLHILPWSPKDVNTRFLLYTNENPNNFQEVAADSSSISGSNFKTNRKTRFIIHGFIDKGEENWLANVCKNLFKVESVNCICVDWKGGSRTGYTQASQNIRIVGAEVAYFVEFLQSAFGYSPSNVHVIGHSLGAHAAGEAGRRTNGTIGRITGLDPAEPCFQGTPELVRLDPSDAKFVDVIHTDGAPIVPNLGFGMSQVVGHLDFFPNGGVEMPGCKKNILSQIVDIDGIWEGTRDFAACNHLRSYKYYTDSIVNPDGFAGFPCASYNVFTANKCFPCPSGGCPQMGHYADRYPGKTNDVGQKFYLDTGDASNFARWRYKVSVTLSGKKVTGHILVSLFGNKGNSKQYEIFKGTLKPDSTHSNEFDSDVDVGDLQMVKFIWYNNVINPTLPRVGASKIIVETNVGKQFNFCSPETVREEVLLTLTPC
Experimental: Measurement of Lipase Activity Using a Quinine Diimine Dye Calorimetric Assay
The inhibitory activity of the selected compounds to pancreatic lipase was measured in the following assay available from Sigma Ltd (Lipase-PS™, catalog number 805-A):
The glycerol released from the action of pancreatic and monoglyceride lipase was oxidised to release H2O2. The peroxidase reaction step then produces a quinine dye which is pink in colour and absorbs light at a wavelength of 550 nm.
Individual test compounds were dissolved in DMSO (dimethyl sulphoxide) at 10 mM. DMSO was used to avoid any problems with compounds being water-insoluble. For individual compounds, the IC50 (concentration at which lipase activity is inhibited to one half of the maximum) was calculated by measuring the inhibitory activity from log-dose response curves using a range of inhibitor concentrations.
A range of compounds was assayed in the quinine diimine dye calorimetric assay which provides a rapid method to measure lipase inhibitory activity.

Porcine trypsin = target: T3, Porcine trypsin (Sus scrofa, UniProt P00761); experiment: Measurement of trypsin activity; settings: at 500 nM; read-out: inhibited % of the trypsin activity
T3 construct: purchased Boehringer
Experimental: Measurement of Trypsin Activity
Porcine trypsin (Boehringer) was dissolved at a concentration of 1 mg/ml in 100 mM MOPS (3-[N-Morpholino]propanesulphonic acid) pH 7.3 containing 2 mM CaCl2. Prior to use, the enzyme was diluted 500 times to give a final concentration of 2 μg/ml.
Selected compounds were routinely stored as 5 mM stock solutions dissolved in DMSO (Dimethylsulphoxide) at −20° C. For the assay, aliquots were defrosted and a series of dilutions (×100, ×200, ×1,000, ×2,000, ×10,000, ×20,000 and ×100,000) made in 100 mM MOPS pH 7.3 containing 2 mM CaCl2. The substrate Bz-Phe-Val-Arg-pNA (Benzoyl-phenylalanyl-valyl-arginine-p-nitroanilide) was dissolved in DMSO to give a 10 mM solution. Immediately prior to use, the substrate was diluted to 0.3 mM (30 μl/ml) in 100 mM MOPS containing […].
as §1, with “2” for “50”, “trypsin, 26” for “chymotrypsin, 50”

T3 sequence (P00761 9-231): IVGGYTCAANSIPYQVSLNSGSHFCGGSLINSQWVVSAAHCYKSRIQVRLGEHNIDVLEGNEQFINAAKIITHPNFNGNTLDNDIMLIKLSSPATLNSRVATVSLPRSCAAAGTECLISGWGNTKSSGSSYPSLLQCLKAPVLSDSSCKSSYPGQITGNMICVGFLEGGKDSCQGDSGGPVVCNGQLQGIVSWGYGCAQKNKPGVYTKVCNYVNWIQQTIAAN

inhibition at 0.5 µM (Bovine Chymotrypsin): 12.5% | inhibition at 0.5 µM (human pancreatic lipase): 98.7% | inhibition at 0.5 µM (Porcine trypsin): 4%
SMILES: CCCCCCCCCCCCCCCCOc1nc2ccc(C)cc2c(=O)o1 [Compound 18, 2-Hexadecyloxy-6-methyl-4H-3,1-benzoxazin-4-one]

— patent publication US7858617B2, “2-oxy-benzoxazinone derivatives for the treatment of obesity” (Norgine B.V., priority 1999, dated 2010)
